Assay results published in patent US20140179773A1, “METHOD FOR THE TREATMENT OF HEART RELATED DISORDERS IN NAFLD PATIENTS” (INSTITUTO BIOCHIMICO ITALIANO GIOVANNI LORENZINI S.P.A., priority 2012, published 2014).

What was measured:
Format in all cases: in vivo
[1] = tested on: db/db mice fed a methionine-choline deficient (MCD) diet; test: Biometric and serum biochemical parameters in db/db mice fed MCD diet
Description: This study is aimed at assessing the efficacy of silibinin both on liver and heart injury in NAFLD and at identifying the related molecular events. In order to investigate this issue, we used db/db mice fed a methionine-choline deficient (MCD) diet, a model combining the features of the metabolic syndrome with the histological pattern of NASH [23,24]. In fact, db/db mice fed an MCD diet do partially conserve increased visceral adiposity and an insulin resistant phenotype, while developing hepatocellular injury.
(§1) All procedures fulfilled the Italian Guidelines for the Use and Care of Laboratory Animals. Six-week-old male BKS.Cg-m+/+ Leprdb/J (db/db) obese mice and six-week-old male heterozygous db/m lean control mice were purchased. Animals were maintained in a temperature and light-controlled facility and permitted ad libitum consumption of water; after two week of acclimation, db/db mice were fed a MCD diet for 4 weeks, whereas db/m mice were fed a MCD diet supplemented with methionine and choline, i.e. a standard diet (SD), for the same period. Silibinin was dissolved in saline (vehicle) and daily administered intraperitoneally at a dosage of 20 mg/kg of body weight. Mice were distributed in 3 groups: group I included 6 db/m mice fed a control diet and treated with vehicle (db/m+SD); group II comprised 6 db/db mice fed a MCD diet and treated with vehicle (db/db+MCD); group III included 6 db/db mice fed a MCD diet and treated with silibinin (db/db+MCD+silibinin). Treatment was administered for a 4-week period; at the end of it, animals were sacrificed after an overnight fast. Blood, liver and heart samples were obtained and stored at −80° C. for further analysis.
Blood glucose was measured by Accuchek (Roche Diagnostics, Milan, Italy). Serum ALT and serum insulin were determined using a multichannel autoanalyzer. Liver triglycerides content was measured using a serum/tissue triglyceride colorimetric kit (Biovision, Mountain View, Calif.). Liver and heart isoprostanes and 8-hydroxyguanosine (8-OHG) were determined by enzyme-linked immunosorbent assay (ELISA) test; reduced glutathione (GSH) was assessed by a GSH assay. Liver and heart nitrite/nitrates were measured colorimetrically using Griess reagent, following manufacturer's instructions. ELISA kit for TNF-α was used on whole myocardial tissue protein extracts, following manufacturer's instructions.

[2] = tested on: Liver mitochondrial respiratory chain (MRC) complexes I-V; test: Mitochondrial respiratory chain activity assay in liver of treated mice; conditions: activity relative to db/m + SD group = 100, MCD diet, silibinin 20 mg/kg i.p. daily 4 weeks
Description: as §1, with “analysis. Mitochondrial respiratory chain (MRC) activities was determined as previously described. Briefly, liver tissues (50-70 mg) were homogenized with 15 vol of 20 mmol/L KP buffer, pH 7.4, and centrifuged at 800×g for 10 min. Respiratory chain enzymes and citrate synthase activities were measured in a DU-650 spectrophotometer. Incubation temperatures were 30° C. for complexes I, II, III, V, and citrate synthase, and 38° C. for complex IV. Enzyme activities were assessed in supernatants, expressed as nanomoles of substrate used per minute per milligram of protein and referred as a percentage of the specific activity of citrate synthase, to adjust for the hepatic content of mitochondria.” for “analysis.”

[3] = tested on: db/db mice fed a methionine-choline deficient (MCD) diet; test: Liver triglycerides content (colorimetric kit) in db/db mice fed MCD diet; conditions: 4 weeks MCD diet, silibinin 20 mg/kg i.p. daily
Description: All procedures fulfilled the Italian Guidelines for the Use and Care of Laboratory Animals. Six-week-old male BKS.Cg-m+/+ Leprdb/J (db/db) obese mice and six-week-old male heterozygous db/m lean control mice were purchased. Animals were maintained in a temperature and light-controlled facility and permitted ad libitum consumption of water; after two week of acclimation, db/db mice were fed a MCD diet for 4 weeks, whereas db/m mice were fed a MCD diet supplemented with methionine and choline, i.e. a standard diet (SD), for the same period. Silibinin was dissolved in saline (vehicle) and daily administered intraperitoneally at a dosage of 20 mg/kg of body weight. […]
Blood glucose was measured by Accuchek (Roche Diagnostics, Milan, Italy). Serum ALT and serum insulin were determined using a multichannel autoanalyzer. Liver triglycerides content was measured using a serum/tissue triglyceride colorimetric kit (Biovision, Mountain View, Calif.). Liver and heart isoprostanes and 8-hydroxyguanosine (8-OHG) were determined by enzyme-linked immunosorbent assay (ELISA) test; reduced glutathione (GSH) was assessed by a GSH assay. Liver and heart nitrite/nitrates were measured colorimetrically using Griess reagent, following manufacturer's instructions. […]

[4] = db/db mice, 4 weeks MCD diet, silibinin 20 mg/kg i.p. daily
[5] = db/db mice, 4 weeks MCD diet, silibinin 20 mg/kg i.p. daily, overnight fast

COc1cc(C2Oc3cc([C@H]4Oc5cc(O)cc(O)c5C(=O)[C@@H]4O)ccc3OC2CO)ccc1O (stereo partly shown) [silibinin, Silibinin]
Effect on food intake ([1]; data not shown): did not modify
HOMA-IR [1, 4]: 1.7 ± 0.5*, **
Serum ALT [1, 4]: 180.5 ± 66.5*, ** IU/L
Blood glucose [1, 5]: 103.7 ± 16.8*, ** mg/dL
Serum insulin [1, 5]: 6.5 ± 1.1 mU/mL
12-Weeks weight ([1]; db/db mice, after 4 weeks MCD diet and silibinin 20 mg/kg i.p. daily): 34.8 ± 1.9 g
Decrease of ALT levels ([1]; silibinin-treated vs vehicle db/db fed MCD diet): 3 fold
Liver MRC complex I [2]: 90.2 ± 5.2
Liver MRC complex II [2]: 88.4 ± 4.3
Liver MRC complex III [2]: 94.4 ± 6.8
Liver MRC complex IV [2]: 96.1 ± 5.2
Liver MRC complex V [2]: 94.3 ± 6.2
Liver triglycerides [3]: 8.3 ± 2.4*, ** mg/g protein
